ChEMBL document CHEMBL1201862, “PubChem BioAssay data set” (2004)
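Cells were grown in 96-well plates and exposed to each compound for 48 hours at five concentrations; endpoints were interpolated linearly between bracketing concentrations, or set to the highest concentration if not reached. Abbreviation: GI50, concentration required for 50% inhibition of growth.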 Active and inactive are the calls of the source. Rule as the data show it: active = GI50 up to about 1.1 µM and inactive = higher.

How the values were obtained:
Experiment in all cases: growth of human tumour cells (NCI), 48 h
SF-539 = test system: SF-539
HOP-18 = test system: HOP-18
KM-20L2 = test system: KM-20L2
EKVX = test system: EKVX
786-0 = test system: 786-0
CAKI-1 = test system: CAKI-1
M14 = test system: M14
LXFL 529 = test system: LXFL 529
UO-31 = test system: UO-31
DMS-114 = test system: DMS-114
SF-268 = test system: SF-268
LOX IMVI = test system: LOX IMVI
TK-10 = test system: TK-10
U-251 = test system: U-251
RXF 393 = test system: RXF 393
NCI-H460 = test system: NCI-H460
M19-MEL = test system: M19-MEL
XF498 = test system: XF498
IGROV-1 = test system: IGROV-1
SN12C = test system: SN12C
SF-295 = test system: SF-295
NCI-H23 = test system: NCI-H23
HOP-92 = test system: HOP-92
HOP-62 = test system: HOP-62
NCI-H522 = test system: NCI-H522
OVCAR-8 = test system: OVCAR-8
A498 = test system: A498
ACHN = test system: ACHN
MOLT-4 = test system: MOLT-4
HT-29 = test system: HT-29
SK-OV-3 = test system: SK-OV-3
DMS-273 = test system: DMS-273
HCT-15 = test system: HCT-15
RXF 631 = test system: RXF 631
SK-MEL-28 = test system: SK-MEL-28
COLO 205 = test system: COLO 205
HCT-116 = test system: HCT-116
UACC-62 = test system: UACC-62
OVCAR-4 = test system: OVCAR-4
A549 = test system: A549
OVCAR-5 = test system: OVCAR-5
OVCAR-3 = test system: OVCAR-3
SW-620 = test system: SW-620
SK-MEL-5 = test system: SK-MEL-5
DLD-1 = test system: DLD-1
HCC 2998 = test system: HCC 2998
SR = test system: SR
SNB-75 = test system: SNB-75
SK-MEL-2 = test system: SK-MEL-2
Malme-3M = test system: Malme-3M
HL-60 = test system: HL-60
SNB-19 = test system: SNB-19
NCI-H226 = test system: NCI-H226
SNB-78 = test system: SNB-78
K562 = test system: K562
UACC-257 = test system: UACC-257
KM12 = test system: KM12
RPMI-8226 = test system: RPMI-8226
CCRF-CEM = test system: CCRF-CEM

Structure (SMILES): CCc1nc2ccccc2c(=O)n1/N=C(\N=N\c1ccc(Cl)cc1)c1ccccc1Cl
- GI50 (SF-539): 47.4 µM (inactive)
- GI50 (HOP-18): 20 µM (inactive)
- GI50 (KM-20L2): 48.3 µM (inactive)
- GI50 (EKVX): 2.11 µM (inactive)
- GI50 (786-0): 67.8 µM (inactive)
- GI50 (CAKI-1): 65.5 µM (inactive)
- GI50 (M14): 68.5 µM (inactive)
- GI50 (LXFL 529): 23.4 µM (inactive)
- GI50 (UO-31): 18.2 µM (inactive)
- GI50 (DMS-114): 20.1 µM (inactive)
- GI50 (SF-268): 28 µM (inactive)
- GI50 (LOX IMVI): 53.2 µM (inactive)
- GI50 (TK-10): 82.8 µM (inactive)
- GI50 (U-251): 49.7 µM (inactive)
- GI50 (RXF 393): 21.1 µM (inactive)
- GI50 (NCI-H460): 50.4 µM (inactive)
- GI50 (M19-MEL): > 100 µM (inactive)
- GI50 (XF498): 18.5 µM (inactive)
- GI50 (IGROV-1): > 100 µM (inactive)
- GI50 (SN12C): 57.3 µM (inactive)
- GI50 (SF-295): 54.7 µM (inactive)
- GI50 (NCI-H23): 82.8 µM (inactive)
- GI50 (HOP-92): 20.2 µM (inactive)
- GI50 (HOP-62): 39.3 µM (inactive)
- GI50 (NCI-H522): > 10 µM (inactive)
- GI50 (OVCAR-8): 39.5 µM (inactive)
- GI50 (A498): 51.9 µM (inactive)
- GI50 (ACHN): 43.2 µM (inactive)
- GI50 (MOLT-4): 26.1 µM (inactive)
- GI50 (HT-29): 50.9 µM (inactive)
- GI50 (SK-OV-3): 60.7 µM (inactive)
- GI50 (DMS-273): 38.7 µM (inactive)
- GI50 (HCT-15): 68.2 µM
- GI50 (RXF 631): > 100 µM (inactive)
- GI50 (SK-MEL-28): 23.5 µM (inactive)
- GI50 (COLO 205): 52.6 µM (inactive)
- GI50 (HCT-116): 26.8 µM (inactive)
- GI50 (UACC-62): > 100 µM (inactive)

Structure (SMILES): Cc1ccc(S(=O)(=O)NC2(C=O)CCC(C(C)(C)C)CC2)cc1 (stereo not drawn)
- GI50 (SF-539): 44.6 µM (inactive)
- GI50 (OVCAR-4): 27.7 µM (inactive)
- GI50 (HOP-18): 29.2 µM (inactive)
- GI50 (A549): 35.1 µM (inactive)
- GI50 (KM-20L2): 28.8 µM (inactive)
- GI50 (OVCAR-5): 79.3 µM (inactive)
- GI50 (EKVX): 38.1 µM (inactive)
- GI50 (786-0): 37.9 µM (inactive)
- GI50 (CAKI-1): > 100 µM (inactive)
- GI50 (M14): 71 µM (inactive)
- GI50 (LXFL 529): > 100 µM (inactive)
- GI50 (OVCAR-3): 24.5 µM (inactive)
- GI50 (UO-31): 38.1 µM (inactive)
- GI50 (DMS-114): 20.4 µM (inactive)
- GI50 (SF-268): 38.9 µM (inactive)
- GI50 (SW-620): 70.3 µM (inactive)
- GI50 (SK-MEL-5): 21.9 µM (inactive)
- GI50 (TK-10): 33.8 µM (inactive)
- GI50 (U-251): 34.3 µM (inactive)
- GI50 (DLD-1): 35.2 µM (inactive)
- GI50 (HCC 2998): 36.9 µM (inactive)
- GI50 (SR): 15.2 µM (inactive)
- GI50 (RXF 393): 27.3 µM (inactive)
- GI50 (SNB-75): 45.2 µM (inactive)
- GI50 (NCI-H460): 32.3 µM (inactive)
- GI50 (M19-MEL): 24.7 µM (inactive)
- GI50 (SK-MEL-2): 44.6 µM (inactive)
- GI50 (XF498): 43.8 µM (inactive)
- GI50 (IGROV-1): 37.7 µM (inactive)
- GI50 (SN12C): 26.1 µM (inactive)
- GI50 (SF-295): 31.3 µM (inactive)
- GI50 (NCI-H23): 31.2 µM (inactive)
- GI50 (HOP-92): 30.7 µM (inactive)
- GI50 (HOP-62): > 100 µM (inactive)
- GI50 (Malme-3M): 35.2 µM (inactive)
- GI50 (HL-60): 20.1 µM (inactive)
- GI50 (NCI-H522): 24.3 µM (inactive)
- GI50 (OVCAR-8): 36.5 µM (inactive)
- GI50 (A498): 89.9 µM (inactive)
- GI50 (ACHN): 32.5 µM (inactive)
- GI50 (SNB-19): 68.7 µM (inactive)
- GI50 (MOLT-4): 16.5 µM (inactive)
- GI50 (HT-29): 32.1 µM (inactive)
- GI50 (SK-OV-3): > 100 µM (inactive)
- GI50 (NCI-H226): > 100 µM (inactive)
- GI50 (SNB-78): > 100 µM (inactive)
- GI50 (K562): 28.8 µM (inactive)
- GI50 (DMS-273): 27.7 µM (inactive)
- GI50 (HCT-15): 32.6 µM
- GI50 (UACC-257): 34.9 µM (inactive)
- GI50 (KM12): 27 µM (inactive)
- GI50 (RXF 631): 31.8 µM (inactive)
- GI50 (RPMI-8226): 19.1 µM (inactive)
- GI50 (COLO 205): 26.7 µM (inactive)
- GI50 (HCT-116): 23.8 µM (inactive)
- GI50 (UACC-62): 39 µM (inactive)

Structure (SMILES): CC(C)(C)[Si](C)(C)O/N=C\c1ccc(O[Si](C)(C)C(C)(C)C)cc1
- GI50 (SF-539): 42.5 µM (inactive)
- GI50 (CCRF-CEM): 49.8 µM (inactive)
- GI50 (OVCAR-4): > 100 µM (inactive)
- GI50 (HOP-18): > 100 µM (inactive)
- GI50 (A549): 92.7 µM (inactive)
- GI50 (KM-20L2): 44.7 µM (inactive)
- GI50 (OVCAR-5): 44.1 µM (inactive)
- GI50 (EKVX): > 100 µM (inactive)
- GI50 (786-0): 38.5 µM (inactive)
- GI50 (CAKI-1): > 100 µM (inactive)
- GI50 (M14): 62.1 µM (inactive)
- GI50 (LXFL 529): 84.9 µM (inactive)
- GI50 (OVCAR-3): 20.2 µM (inactive)
- GI50 (UO-31): 50.9 µM (inactive)
- GI50 (DMS-114): 25.9 µM (inactive)
- GI50 (SF-268): 49.5 µM (inactive)
- GI50 (LOX IMVI): 21.3 µM (inactive)
- GI50 (SW-620): > 100 µM (inactive)
- GI50 (SK-MEL-5): > 100 µM (inactive)
- GI50 (TK-10): > 100 µM (inactive)
- GI50 (U-251): 25.2 µM (inactive)
- GI50 (DLD-1): > 100 µM (inactive)
- GI50 (HCC 2998): 36.8 µM (inactive)
- GI50 (RXF 393): 24.5 µM (inactive)
- GI50 (SNB-75): 72.1 µM (inactive)
- GI50 (NCI-H460): > 100 µM (inactive)
- GI50 (M19-MEL): 41.3 µM (inactive)
- GI50 (SK-MEL-2): > 100 µM (inactive)
- GI50 (XF498): 31.8 µM (inactive)
- GI50 (IGROV-1): > 100 µM (inactive)
- GI50 (SN12C): 61.2 µM (inactive)
- GI50 (SF-295): 52.5 µM (inactive)
- GI50 (NCI-H23): > 100 µM (inactive)
- GI50 (HOP-62): > 100 µM (inactive)
- GI50 (Malme-3M): > 100 µM (inactive)
- GI50 (HL-60): 36.5 µM (inactive)
- GI50 (OVCAR-8): 62.8 µM (inactive)
- GI50 (A498): 52.4 µM (inactive)
- GI50 (ACHN): 37.6 µM (inactive)
- GI50 (SNB-19): 72.4 µM (inactive)
- GI50 (MOLT-4): 41.3 µM (inactive)
- GI50 (HT-29): 64.4 µM (inactive)
- GI50 (SK-OV-3): > 100 µM (inactive)
- GI50 (SNB-78): > 100 µM (inactive)
- GI50 (K562): 45.9 µM (inactive)
- GI50 (DMS-273): > 100 µM (inactive)
- GI50 (HCT-15): 33.3 µM
- GI50 (UACC-257): > 100 µM (inactive)
- GI50 (KM12): > 100 µM (inactive)
- GI50 (RXF 631): 24 µM (inactive)
- GI50 (RPMI-8226): 57.5 µM (inactive)
- GI50 (COLO 205): > 100 µM (inactive)
- GI50 (HCT-116): 24.2 µM (inactive)
- GI50 (UACC-62): > 100 µM (inactive)
